Results published in patent US4590178A (Ajinomoto Company, Incorporated, priority 1982, dated 1986).

Legend:
[1] = 27.7° C.
[2] = tested on: spontaneously hypertensive rats; assay: Antihypertensive activity: systolic blood pressure measured indirectly on conscious SHR after peroral dosing; type: in vivo, rat; conditions: for Systolic Blood Pressure, Pretreatment: SHR (male, 13 months, 2 per sample), before 35 mg/kg peroral single dose; for Systolic Blood Pressure, 4 hrs after administration / Δ Blood Pressure: SHR; for Systolic Blood Pressure, 4 hrs after administration: 4 hours after 35 mg/kg peroral single dose; for Δ Blood Pressure: 4 hours after 35 mg/kg peroral single dose versus pretreatment
Description: The antihypertensive activity of part of the amino acid derivatives prepared above, was determined.
As subject animals 2 SHR were used which had been trained enough and been confirmed to be hypertensive spontaneously hypertensive rats (male, 13 months of age, the body weight of 400 to 440 g) per sample.
As an instrument for measuring the blood pressure a Programmed Electro-Sphygmomanometer PE-300 (Narco Co., U.S.A.) was used, and the blood pressure was indirectly measured on conscious rats.
An aqueous solution or suspension of a sample (35 mg/kg) was once force-fed into the stomach by means of a peroral probe.
An antihypertensive activity of part of the amino acid derivatives prepared above was determined.
As subject animals there were used 2 SHR which had been trained enough and been confirmed to be hypertensive spontaneously hypertensive rats (male, 13 months of age, the body weight of 400~440 g) per sample.
As an instrument for measuring the blood pressure there was used Programmed Electro-Sphygmomanometer PE-300 (Narco Co., U.S.A.), and the blood pressure was indirectly measured on conscious rats.
An antihypertensive activity of the product prepared above was determined.

Compound	Median lethal dose (LD50) (mouse)	.rho.Ka [1]	Median lethal dose (LD50) (rat)	Systolic Blood Pressure, Pretreatment [2]	Systolic Blood Pressure, 4 hrs after administration [2]	Δ Blood Pressure [2]
C[C@H](NP(=O)(OCc1ccccc1)OCc1ccccc1)C(=O)N1CCC[C@H]1C(=O)N1CCC[C@H]1C(=O)O [Example 84, Dibenzylphosphoryl-L-alanyl-L-propyl-L-proline in the crystalline form]	more than 15 g/kg	3.92	more than 15 g/kg	219 mm Hg	188 mm Hg	-31 mm Hg
C[C@H](NP(=O)([O-])CCc1ccccc1)C(=O)N1CCC[C@H]1C(=O)N1CCC[C@H]1C(=O)[O-].[Na+].[Na+] [Example 28, N-phenethylphosphonyl-L-alanyl-L-prolyl-L-proline 2 sodium salt]				183 mm Hg	151 mm Hg	-32 mm Hg
Dibenzylphosphoryl-L-alanyl-L-prolyl-L-proline calcium salt [Example 53]				220 mm Hg	188 mm Hg	-32 mm Hg
CSCC[C@H](NP(=O)(CCc1ccccc1)OCc1ccccc1)C(=O)N1CCC[C@H]1C(=O)N1CCC[C@H]1C(=O)[O-].CSCC[C@H](NP(=O)(CCc1ccccc1)OCc1ccccc1)C(=O)N1CCC[C@H]1C(=O)N1CCC[C@H]1C(=O)[O-].[Ca+2] (stereo partly drawn) [Example 55, N-(O-Benzyl-P-phenethylphosphonyl)-L-methionyl-L-prolyl-L-proline calcium salt]				210 mm Hg	180 mm Hg	-30 mm Hg
